Assay [1] relates to thermostable firefly luciferase. Kind of assay: luminescent reaction with luciferin or aminoluciferin as luciferase substrate (FIG. 1). In kind it is biochemical. From the text: FIG. 1 depicts relative light units (RLU) for luciferin or aminoluciferin as a substrate for a thermostable firefly luciferase in a luminescent reaction.
Assay [2] addresses T1, caspase 3 (Homo sapiens, UniProt P42574).
T1 construct: approximately 10 mU/ng protein with >75% in active conformation; purchased Upstate Biotech 14-264
T1 sequence (P42574 29-175 limits assumed): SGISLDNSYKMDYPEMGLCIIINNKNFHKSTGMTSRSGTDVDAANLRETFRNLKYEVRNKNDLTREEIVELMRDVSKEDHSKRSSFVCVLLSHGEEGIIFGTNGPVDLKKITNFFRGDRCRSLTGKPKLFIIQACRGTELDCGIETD
T1 sequence (P42574 176-277 limits assumed): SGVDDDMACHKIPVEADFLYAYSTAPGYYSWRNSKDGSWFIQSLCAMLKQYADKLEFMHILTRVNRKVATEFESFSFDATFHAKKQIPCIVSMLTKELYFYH
Kind of assay: caspase titration in CHAPS or Thesit buffer formulations (Example 5). Type of assay: biochemical. The following applies: buffer containing either CHAPS or Thesit, FIG. 12. On the procedure:
To evaluate different assay component formulations for caspase-3 activity and to compare sensitivities of DEVD-aminoluciferin to DEVD-Rho-110 in those formulations, two stock solutions were prepared. As above, the DEVD-aminoluciferin/luciferase mixture is prepared and allowed to incubate overnight. One stock solution included a 1% solution of CHAPS buffer (Sigma, Catalog No. C-5070) and the other a 1% solution of Thesit (Pragmatics, Inc., Catalog No. S-22#9). The buffer formulations were as follows: 100 μl of HEPES (1 M stock, 50 mM final concentration), 10 μl of CaCl2 (1 M stock, 5 mM final concentration), 30 μl of MgSO4 (1 M stock, 15 mM final concentration), 8 μl of ATP (0.1 M stock, 400 μM final concentration), 8 μl of DEVD-aminoluciferin (10 mM stock, 40 μM final concentration), 38.4 μl of luciferase (5.2 mg/ml stock, 100 μg/ml final concentration) and 20 μl of prionex (10% stock, 0.1% final concentration) were combined in each of 2 tubes. Finally, 200 μl of either CHAPS or Thesit (1% stock, 0.1% final concentration) was added to one of the tubes. This was incubated overnight. […]
To one plate, 50 μl of DEVD-aminoluciferin/luciferase was added to each of the 6 wells containing each dilution (both CHAPS and Thesit treated). […] The plates were read at various times on a luminometer (Dynex) or a fluorimeter (Fluoroskan).

Turning to `Nc1ccc2nc(C3=N[C@@H](C(=O)O)CS3)sc2c1` [aminoluciferin], in assay [1] (substrate for thermostable firefly luciferase, FIG. 1), the Km stood at 2 µM. Also, in assay [1] (under saturating conditions, relative to luciferin), the “light output as luciferin” value is given as “about 60%”. Besides, in assay [2], the “limit of detection (caspase)” value is listed as ~0.2 μU.

The values above are taken from patent US7384758B2, “Bioluminescent protease assay with modified aminoluciferin or derivatives thereof” (Promeaga Corporation, priority 2002, dated 2008).
